Measurements as given in patent US20130202629A1, “USES OF PHOSPHOLIPID CONJUGATES OF SYNTHETIC TLR7 AGONISTS” (The Regents of the University of California, priority 2010, published 2013).

How the values were obtained:
[1] = tested on: C57BL/6 mice; assay: In vivo evaluation of adverse effects after OVA plus TLR7 conjugate immunization; conditions: OVA mixed with conjugate, 10 nmoles per mouse
[2] = tested on: Anthrax Sterne strain spores; format: in vivo, Bacillus anthracis
[3] = target: T1, TLR7 (Mus musculus, UniProt P58681); assay: In vitro cytokine induction (TNF-alpha, IL-6, IL-12; ELISA) in murine macrophages: RAW264.7 cells and BMDM; format: cell-based; conditions: normalized to the molar level of the unconjugated agonist (SM)
T1 construct: BMDM were prepared from C57BL/6 and TLR7 deficient mice; endogenous in cells; host or cells: RAW264.7 (ATCC); bone marrow derived macrophages from C57BL/6 mice
T1 sequence (P58681 27-1050): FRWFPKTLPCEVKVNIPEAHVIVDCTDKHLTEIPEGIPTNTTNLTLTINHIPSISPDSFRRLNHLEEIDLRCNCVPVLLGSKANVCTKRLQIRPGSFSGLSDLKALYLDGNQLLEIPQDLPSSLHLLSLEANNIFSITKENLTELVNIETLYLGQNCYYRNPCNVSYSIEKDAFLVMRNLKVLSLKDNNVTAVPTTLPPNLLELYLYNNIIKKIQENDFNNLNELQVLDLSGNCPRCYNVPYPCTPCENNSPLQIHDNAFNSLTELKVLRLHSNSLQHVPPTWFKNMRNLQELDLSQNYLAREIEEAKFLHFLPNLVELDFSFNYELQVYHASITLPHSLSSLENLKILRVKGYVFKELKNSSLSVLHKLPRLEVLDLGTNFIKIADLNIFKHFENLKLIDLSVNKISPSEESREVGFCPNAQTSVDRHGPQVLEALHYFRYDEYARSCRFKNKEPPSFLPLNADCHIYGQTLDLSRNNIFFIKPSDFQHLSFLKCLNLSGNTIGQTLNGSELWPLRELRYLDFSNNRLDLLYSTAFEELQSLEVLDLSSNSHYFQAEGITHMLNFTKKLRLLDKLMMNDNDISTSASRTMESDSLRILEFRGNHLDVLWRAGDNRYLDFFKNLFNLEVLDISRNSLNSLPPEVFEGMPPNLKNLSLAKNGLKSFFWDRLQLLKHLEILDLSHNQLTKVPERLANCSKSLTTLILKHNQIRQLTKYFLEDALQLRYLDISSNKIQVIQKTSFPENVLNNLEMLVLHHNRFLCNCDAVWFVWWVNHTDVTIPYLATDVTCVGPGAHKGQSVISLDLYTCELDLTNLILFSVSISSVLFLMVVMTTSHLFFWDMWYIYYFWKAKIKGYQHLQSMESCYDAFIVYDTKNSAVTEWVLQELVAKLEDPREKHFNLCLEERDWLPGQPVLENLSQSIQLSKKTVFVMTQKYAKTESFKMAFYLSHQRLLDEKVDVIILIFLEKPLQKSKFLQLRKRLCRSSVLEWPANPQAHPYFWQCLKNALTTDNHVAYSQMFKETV
Description: In vitro measurements of cytokine induction were performed using the mouse leukemic monocyte macrophage cell line, RAW264.7. […] BMDM were prepared from C57BL/6 and TLR7 deficient mice as described in Wu, C. C et al., “Immunotherapeutic activity of a conjugate of a Toll-like receptor 7 ligand”, Proc. Natl. Acad. Sci. USA, 104:3990 (2007).
In general, RAW264.7 cells or BMDM were incubated with various concentrations of conjugates for 18 hours at 37° C., 5% CO2 and culture supernatants were collected. The levels of cytokines (IL-6, IL-12 or TNF-α in the supernatants were determined by ELISA (BD Biosciences Pharmingen, La Jolla, Calif.) (Cho, H. J et al., “Immunostimulatory DNA-based vaccines induce cytotoxic lymphocyte activity by a T-helper cell-independent mechanism” [see comments], Nat. Biotechnol., 18:509 (2000)), and the results presented in FIGS. 2A-D. Data are mean±SEM of triplicates and are representative of three independent experiments. Minimum detection levels of these cytokines were 15 pg/mL.
TNFα levels were measured (see FIG. 2A) by incubating approximately 1×10^6/mL RAW 264.7 cells with the various conjugates or controls, as described above. IL-6 and IL-12 levels were measured (see FIGS. 2B-D) by incubating 0.5×10^6/mL BMDM with the various conjugates or controls, as described above. […]

[4] = tested on: A/J mice; assay: Local (BALF) and systemic cytokine induction after intranasal administration; format: in vivo, mouse
Description: 1V270 induces local inflammation by pulmonary administration. To study the ability of phospholipid conjugated TLR7 to initiate the local inflammation, 6 to 8-week old female A/J mice were intranasally administered with 1V270 (0.5, 1, 2 or 4 nmol per animal) in 5% DMSO in PBS. Mice were sacrificed two hours after the administration and serum and bronchial lavage fluid (BALF) were collected. The levels of IL-6, IL-12 and TNFα were determined by Luminex beads assay.
A/J mice received 10 nmol/animal 1V270 intranasally and BALF were collected 24, 48, and 72 hours after the administration. 1V270 could induce IL-12 and TNFα up to 48 hours (FIG. 10).
BALF and plasma were collected 24 hours later and cytokine levels determined by multiplex luminex assay.

[5] = tested on: TLR7; assay: IL-12 and IL-6 induction in BMDM from wild type and TLR7 deficient mice; format: cell-based, mouse; conditions: BMDM from TLR7 deficient (TLR7-KO) mice
[6] = Solubility; format: physicochemical
[7] = tested on: C57BL/6 mice or caspase 1 deficient; assay: Induction of bladder inflammation by intravesical treatment; format: in vivo, mouse; conditions: intravesical 150 nmoles
Description: C57BL/6 mice or caspase 1 deficient were intravesically treated with 150 nmoles 1V270 or vehicle alone three times at two-day intervals. One set of mice was sacrificed twenty-four hours after the first treatment (FIG. 7). Another set of mice was sacrificed twenty-four hours after the third treatment. […] This inflammation was not detected in the caspase 1 deficient mice.

## CCCCCCCC/C=C\CCCCCCCC(=O)OCC(COP(=O)(O)OCCNC(=O)c1ccc(Cn2c(=O)[nH]c3c(N)nc(OCCOC)nc32)cc1)OC(=O)CCCCCCC/C=C\CCCCCCCC (centres unmarked) [Compound 6, 2-(4-((6-amino-2-(2-methoxyethoxy)-8-oxo-7H-purin-9(8H)-yl)methyl)benzamido)ethyl 2,3-bis(oleoyloxy)propyl phosphate]
[1]
  average body weights versus mice injected saline: No significant differences
[2]; IRS mixed with 1 nmol, i.n. three times at two week intervals, challenge four weeks later
  survival on day 30, long term experiment: 100%
[2]; IRS with 1 nmol, single vaccination, challenge six days later
  survival on day 15, short term experiment: More than half
[2]; adjuvant with IRS
  effective dose, unformulated in DMSO: 1 nmol
[2]; in vivo
  efficacy compared with cholera toxin (CT) as adjuvant: slightly more effective than mice that received CT as an adjuvant
[2]; mucosal immunization with killed anthrax spores
  protection from pulmonary anthrax infection: completely protected mice from pulmonary anthrax infection
[2]; splenocytes of surviving mice cultured with IRS for 5 days
  spore-specific cellular immune responses: induced spore-specific Th1 and Th17 cellular immune responses
[3]
  potency as cytokine inducer relative to the unconjugated agonist: 10 fold
[4]; i.n. 10 nmol/animal
  persistence of IL-12 and TNFα induction in BALF: up to 48 hours
[4]; i.n. 2 to 4 nmol in 5% DMSO in PBS, two hours after administration
  local proinflammatory cytokines (IL-6, IL-12, TNFα) in BALF: induced local proinflammatory cytokines in the BALF
[4]; i.n., BALF and plasma 24 hours later
  localized versus systemic cytokine release: promoted localized cytokine release with minimal systemic side effects
[4]; i.n., two hours after administration
  BALF cytokine levels compared with serum: higher than those in the serum
[5]
  IL-12 and IL-6 induction in TLR7 deficient BMDM: little or no IL-12 and IL-6
[6]; aqueous solution / suitable solvents for testing
  solubility, in words: difficulty in dissolution
[6]; in PBS
  upper limit of solubility: ~100 µM
[7]; C57BL/6 mice, three times at two-day intervals
  bladder inflammation (mononuclear cell infiltration): infiltration of mononuclear cells were observed and increased after the third treatment
[7]; caspase 1 deficient mice
  bladder inflammation in caspase 1 deficient mice: not detected
